Laboratory results reported in patent US20160193251A1, “METHOD FOR TREATING ALS VIA THE INCREASED PRODUCTION OF FACTOR H” (BioViva USA Inc., priority 2013, published 2016).

How the values were obtained:
[1] = tested on: stem cells from fat; assay: Reprogramming of harvested adipose stem cells by drug treatment; assay type: cell-based; settings: harvested stem cells treated with the drug
Excerpt: Embodiments of the present invention include performing adult adipose derived stem cell therapy to treat patients with ALS. Amyelotrophic Lateral Sclerosis (ALS) is a fatal disease with no treatment options. Since ALS is a neurological disorder, it was believed that patients would need neural stem cells, not the mesenchymal type stem cells that we have obtained from harvested adipose tissue. But, because neural stem cells are difficult to attain for various physiological and regulatory reasons, a new technical approach that targets the conversion or reprogramming of mesenchymal type stem cells that are obtained from adipose tissue recovered from the same patient to be treated has been generated.
An examplary stem cell therapy involves the use of adipose derived stem cells, which are then incubated with Selegeline, which results in preinduction into motor neurons. Initially, adipose tissue or fat is harvested via a minimally invasive liposuction. Then the fat is processed to separate the vascular stromal fraction of stem cells. […] Once processed, the majority of stem cells are administered into the spine (spinal fluid) via a lumbar puncture. A small dilute fraction of cells are injected into a select muscle group. […] The techniques allowing for culturing of stem cells and the reintroduction will help increase stem cell numbers. […]

[2] = tested on: ALS mouse model; settings: cited from earlier work
[3] = previous studies; cited from earlier work
[4] = tested on: SOD1 rats; settings: ex vivo gene delivery within muscles, midstages of the disease; cited from earlier work

With `C#CCN(C)[C@H](C)Cc1ccccc1` [Selegeline] the “reprogramming of stem cells” value [1] was “able to reprogram the stem cells from fat into neural like cells”.

In the case of IGF-1: Insulin like growth factor 1, the progression [2] is given as “delayed progression” and the survival [2] is given as “increased survival”.

B1: CNTF: a neurotrophic factor that is protective of neurons (protein, UniProt P26441 1-200, looked up)
Ciliary neurotrophic factor: MAFTEHSPLTPHRRDLCSRSIWLARKIRSDLTALTESYVKHQGLNKNINLDSADGMPVASTDQWSELTEAERLQENLQAYRTFHVLLARLLEDQQVHFTPTEGDFHQAIHTLLLQVAAFAYQIEELMILLEYKIPRNEADGMPINVGDGGLFEKKLWGLKVLQELSQWTVRSIHDLRFISSHQTGIPARGSHYIANNKKM
In the case of B1, the half life [3] is listed as 2.9 min.

B2: GDNF: Glial derived neurotrophic factor; in b58 given by ex vivo gene delivery within muscles (protein, UniProt P39905 78-211, looked up)
Glial cell line-derived …: SPDKQMAVLPRRERNRQAAAANPENSRGKGRRGQRGKNRGCVLTAIHLNVTDLGLGYETKEELIFRYCSGSCDAAETTYDKILKNLSRNRRLVSDKVGQACCRPIAFDDDLSFLDDNLVYHILRKHSAKRCGCI
For B2, the “number of neuromuscular connections and motor neuron cell bodies” value [2] is listed as “increased the number of neuromuscular connections and motor neuron cell bodies” and the “number of neuromuscular connections and MN cell bodies” value [4] is listed as “significantly increased the number of neuromuscular connections”.
